# Laboratory results taken from patent US20090149472A1, “SALTS OF SUBSTITUTTED PYRAZOLINE COMPOUNDS, THEIR PREPARATION AND USE AND MEDICAMENTS” (Laboratorios Del Dr. Esteve, S.A., priority 2005, published 2009).
# pKi: −log10 of the molar value. Like-named read-outs stand apart in the source and are kept apart here.
# Assays:
# [1] = molecular target: CB1-Receptor (Homo sapiens, UniProt P21554); assay: CB1 receptor binding, radioligand [3H]-SR141716A (Table Ia)
# [2] = system: rats; assay: In-vivo testing for antiobesic activity; parameters: species or system rat
# Method: The in-vivo testing for antiobesic activity of the inventive pyrazoline compounds is carried out as described in the publication of G. Colombo et al., “Appetite Suppression and Weight Loss after the Cannabinoid Antagonist SR 141716”; Life Sciences, 63 (8), 113-117, (1998). The respective part of the description is hereby incorporated by reference and forms part of the present disclosure.
# The in-vivo testing for antiobesic activity was carried out as described above, whereby four different groups of 10 rats each were treated as follows:
# The second group of rats was treated with the inventive compound N-piperidinyl-5-(4-chlorophenyl)-1-(2,4-dichlorophenyl)-4,5-dihydropyrazole-3-carboxamide according to Example 1. Said compound was administered intraperitoneally to the rats over a period of 14 days in a daily dosis of (10 mg/kg body weight).
# [3] = system: male NMRI mice; assay: Mouse tetrad model, antagonistic effect against Win 55212-2; type: in vivo; parameters: unit not given here; conditions: 5 mg/kg i.v. prior to Win 55212-2 1.25 mg/kg i.v.
# Text: (§1) Substances with affinity for cannabinoid receptors are known to produce a wide range of pharmacological effects. It is also known that intravenous administration of a substance with affinity for cannabinoid receptors in mice produces analgesia, hypothermia, sedation and catalepsy. Individually, none of these effects can be considered as proof that a tested substance has affinity for cannabinoid-receptors, since all of these effects are common for various classes of centrally active agents. However, substances, which show all of these effects, i.e. substances that are active in this so-called tetrad model are considered to have affinity for the cannabinoid receptors.
# (§2) The tetrad model is described, for example, in the publication of A. C. Howlett et al, International Union of Pharmacology XXVII. Classification of Cannabinoid Receptors, Pharmacol Rev 54, 161-202, 2002 and David R. Compton et al., “In-vivo Characterization of a Specific Cannabinoid Receptor Antagonist (SR141716A):Inhibition of Tetrahydrocannbinol-induced Responses and Apparent Agonist Activity”, J. Pharmacol. Exp. Ther. 277, 2, 586-594, 1996. The corresponding parts of the description are hereby incorporated by reference.
# (§3) Male NMRI mice with a weight of 20-30 g (Harlan, Barcelona, Spain) are used in all of the following experiments.
# (§4) Before testing in the behavioral procedures given below, mice are acclimatized to the experimental setting. Pre-Treatment control values are determined for analgesia hot plate latency (in seconds), rectal temperature, sedation and catalepsy.
# In order to determine the antagonistic activity the identical procedure is used as for the determination of the agonistic effects, but with the difference that the substance to be evaluated for its antagonistic activity is injected 5 minutes before the intravenous injection of 1.25 mg/kg Win-55,212 a known cannabinoid-receptor agonist.
# (§5) The hot plate analgesia is determined according to the method described in Woolfe D. et al. “The evaluation of analgesic action of pethidine hydrochloride (Demerol)”, J. Pharmacol. Exp. Ther. 80, 300-307, 1944. The respective description is hereby incorporated by reference and forms part of the present disclosure.
# (§6) The mice are placed on a hot plate (Harvard Analgesimeter) at 55±0.5° C. until they show a painful sensation by licking their paws or jumping and the time for these sensations to occur is recorded. This reading is considered the basal value (B). The maximum time limit the mice are allowed to remain on the hot plate in absence of any painful response is 40 seconds in order to prevent skin damage. This period is called the cut-off time (PC).
# (§7) Fifteen minutes after the administration of the substance to be tested, the mice are again placed on the hot plate and the afore described procedure is repeated. This period is called the post-treatment reading (PT).
# (§8) The degree of analgesia is calculated from the formula:
# (§9) % MPE of Analgesia=(PT−B)/(PC−B)×100
# (§10) Sedation and ataxia is determined according to the method described in Desmet L. K. C. et al. “Anticonvulsive properties of Cinarizine and Flunarizine in Rats and Mice”, Arzneim.-Forsch. (Frug Res) 25, 9, 1975. The respective description is hereby incorporated by reference and forms part of the present disclosure.
# (§11) The chosen scoring system is
# (§12) 0: no ataxia; 1: doubtful; 2: obvious calmness and quiet; 3 pronounced ataxia; prior to as well as after treatment.
# (§13) The percentage of sedation is determined according to the formula:
# (§14) % of sedation=arithmetic mean/3×100
# (§15) Hypothermia is determined according to the method described in David R. Compton et al. “In-vivo Characterization of a Specific Cannabinoid Receptor Antagonist (SR141716A) Inhibition of Tetrahydrocannbinol-induced Responses and Apparent Agonist Activity”, J. Pharmacol Exp Ther. 277, 2, 586-594, 1996. The respective description is hereby incorporated by reference and forms part of the present disclosure. […]
# [4] = system: male NMRI mice; assay: Mouse tetrad model, agonistic effect; type: in vivo; parameters: key to Agonistic effect D: Sedation: % of sedation = mean score (0–3 scale) / 3 × 100; Agonistic effect A: Hot-Plate test / Agonistic effect B: Hypothermia / Agonistic effect C: Catalepsy: unit not given here; conditions: 5 mg/kg i.v.
# Text: as §1, §2, §3, §4
# In order to determine the agonistic activity of the substance to be tested, the mice are injected intravenously with the substance to be tested or the vehicle alone. 15 minutes after injection, latency in hot plate analgesia is measured. Rectal temperature, sedation and catalepsy are measured 20 minutes after injection.
# as §5, §6, §7, §8, §9, §10, §11, §12, §13, §14, §15
# [5] = In-vivo antidepressant activity, water despair test
# Method: The in-vivo testing for antidepressant activity of the inventive pyrazoline compounds in the water despair test is carried out as described in the publication of E. T. Tzavara et al., “The CB1 receptor antagonist SR141716A selectively increases monoaminergic neurotransmission in the medial prefrontal cortex: implications for therapeutic actons”; Br. J. Pharmacol. 2003, 138(4):544:53. The respective part of the description is hereby incorporated by reference and forms part of the present disclosure.
# The in-vivo testing for antidepressant activity of the inventive pyrazoline compounds in the water despair test was carried out as described above.
# [6] = molecular target: T1, transfected human CB1 receptor (Homo sapiens, UniProt P21554); assay: In-vitro affinity to CB1 receptor, radioligand [3H]-CP55940; type: binding
# T1 construct: purchased Receptor Biology, Inc
# Method: (§16) The in-vitro determination of the affinity of the inventive substituted pyrazoline compounds to CB1/CB2-Rezeptors is carried out as described in the publication of Ruth A. Ross, Heather C. Brockie et al., “Agonist-inverse agonist characterization at CB1 and CB2 cannabinoid receptors of L-759633, L759656 and AM630”, British Journal of Pharmacology, 126, 665-672, (1999), whereby the transfected human CB1 and CB2 receptors of Receptor Biology, Inc. are used. The radioligand used for both receptors is [^3H]-CP55940. The respective parts of the description is hereby incorporated by reference and forms part of the present disclosure.
# (§17) The affinity of the inventive substituted pyrazoline compounds to CB1/CB2 receptors was determined as described above.
# [7] = molecular target: T2, transfected human CB2 receptor (Homo sapiens, UniProt P34972); assay: In-vitro affinity to CB2 receptor, radioligand [3H]-CP55940; type: binding
# T2 construct: purchased Receptor Biology, Inc
# Method: as §16, §17
# [8] = read-out: CB1-Receptor Radioligand: [3H]-SR141716A % Inhibition 10^-7 M
# CB1-Receptor, sequence (P21554 whole entry): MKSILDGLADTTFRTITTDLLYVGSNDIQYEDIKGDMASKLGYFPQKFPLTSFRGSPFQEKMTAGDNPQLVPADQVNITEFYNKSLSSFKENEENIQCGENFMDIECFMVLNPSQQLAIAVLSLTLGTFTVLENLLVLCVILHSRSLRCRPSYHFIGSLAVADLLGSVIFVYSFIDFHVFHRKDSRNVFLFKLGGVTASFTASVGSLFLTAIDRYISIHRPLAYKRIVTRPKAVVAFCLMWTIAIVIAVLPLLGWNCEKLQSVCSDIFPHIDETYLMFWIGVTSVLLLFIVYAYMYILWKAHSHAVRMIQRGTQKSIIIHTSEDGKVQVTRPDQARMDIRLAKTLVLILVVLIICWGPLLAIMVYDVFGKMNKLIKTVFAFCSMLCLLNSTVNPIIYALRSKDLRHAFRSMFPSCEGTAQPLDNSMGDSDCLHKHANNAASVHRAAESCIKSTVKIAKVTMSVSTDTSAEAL
# T1 sequence (P21554 whole entry): as above
# T2 sequence (P34972 whole entry): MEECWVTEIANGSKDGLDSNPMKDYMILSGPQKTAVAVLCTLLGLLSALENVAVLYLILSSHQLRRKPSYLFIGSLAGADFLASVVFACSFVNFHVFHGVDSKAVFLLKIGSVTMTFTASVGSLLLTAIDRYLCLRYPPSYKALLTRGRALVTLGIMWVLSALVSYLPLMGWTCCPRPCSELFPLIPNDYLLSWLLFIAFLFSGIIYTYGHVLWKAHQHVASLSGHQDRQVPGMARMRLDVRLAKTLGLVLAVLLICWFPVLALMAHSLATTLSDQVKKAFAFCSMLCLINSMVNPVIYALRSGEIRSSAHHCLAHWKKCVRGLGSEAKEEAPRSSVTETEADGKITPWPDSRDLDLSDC
smiles,measurement,setting,value
O=C(NN1CCCCC1)C1=NN(c2ccc(Cl)cc2Cl)C(c2ccc(Cl)cc2)C1 (stereo not drawn) [drawing 82],inhibition at 0.1 µM,"[1]; read-out: CB1-Receptor Radioligand: [3H]-SR141716A % Inhibition 10^-7 M, 10^-7 M, [3H]-SR141716A",82.6%
"O=C(NN1CCCCC1)C1=NN(c2ccc(Cl)cc2Cl)C(c2ccc(Cl)cc2)C1 (stereo not drawn) [Example 1, N-piperidinyl-5-(4-chlorophenyl)-1-(2,4-dichlorophenyl)-4,5-dihydro-1H-pyrazole-3-carboxamide]",body weight,[2]; 10 mg/kg daily intraperitoneally over 14 days (FIG. 1),lowered
same,food intake,[2]; 10 mg/kg daily intraperitoneally over 14 days (FIG. 2),reduction
same,body weight effect after the treatment is ended,[2]; after end of 14 days of 10 mg/kg daily i.p. (FIG. 1),also observed after the treatment is ended
same,Antagonistic Effect A: Hot-Plate test,[3],74
same,Antagonistic Effect B: Hypothermia,[3],100
same,Antagonistic Effect C: Catalepsy,[3],100
same,Antagonistic Effect D: Sedation,[3],100
same,Agonistic effect A: Hot-Plate test,[4],0
same,Agonistic effect B: Hypothermia,[4],0
same,Agonistic effect C: Catalepsy,[4],0
same,Agonistic effect D: Sedation,[4],0
same,immobility time and struggling time,[5],positive effects
same,pKi,[6],> 7.60
same,pKi,[7],< 6.00
"O=C(C1=NN(c2ccc(Cl)cc2Cl)C(c2ccc(Cl)cc2)C1)N1CCCCC1 (stereo not drawn) [Example 5, [5-(4-Chloro-phenyl)-1-(2,4-dichloro-phenyl)-4,5-dihydro-1H-pyrazol-3-yl]-piperidin-1-yl-methanone]",Antagonistic Effect A: Hot-Plate test,[3],50
same,Antagonistic Effect B: Hypothermia,[3],40
same,Antagonistic Effect C: Catalepsy,[3],20
same,Antagonistic Effect D: Sedation,[3],20
same,Agonistic effect A: Hot-Plate test,[4],0
same,Agonistic effect B: Hypothermia,[4],50
same,Agonistic effect C: Catalepsy,[4],0
same,Agonistic effect D: Sedation,[4],0
same,melting point,,105 to 110 °C
O=C(NN1CCCCC1)C1=NN(c2ccc(Cl)cc2Cl)C(c2ccc(Cl)cc2)C1 (stereo not drawn) [drawing 84],inhibition at 0.1 µM,[1]; [8],99.7%
O=C(Nn1cnnc1)C1=NN(c2ccc(Cl)cc2Cl)C(c2ccc(Cl)cc2)C1 (stereo not drawn),melting point,,134 to 138 °C
CN1CCN(NC(=O)C2=NN(c3ccc(Cl)cc3Cl)C(c3ccc(Cl)cc3)C2)CC1.Cl (stereo not drawn),melting point,,150 to 155 °C
O=C(NN1CCCCC1)C1=NC(c2ccc(Cl)cc2Cl)[C@@H](c2ccc(Cl)cc2)C1 (stereo partly drawn),inhibition at 0.1 µM,"[1]; 10^-7 M, [3H]-SR141716A, read-out: CB1-Receptor Radioligand: [3H]-SR141716A % Inhibition 10^-7 M",82.7%
O=C(NN1CCCCC1)C1=NN(c2ccc(Cl)cc2Cl)C(c2ccc(Cl)cc2)C1.O=[N+]([O-])O (stereo not drawn),CB1-Receptor Radioligand: [3H]-SR141716A % Inhibition 10^-7 M,"[1]; 10^-7 M, [3H]-SR141716A",83.6%
O=C(NN1CCCCC1)C1=NN(c2ccc(Cl)cc2Cl)[C@@H](c2ccc(Cl)cc2)C1,inhibition at 0.1 µM,[1]; [8],83.3%
